Data published in publication PMC4685510, “A Cell Biologist’s Field Guide to Aurora Kinase Inhibitors” (Frontiers in Oncology, 2015).

Assays:
Experiment in all cases: biochemical
Type in all cases: biochemical
[1] = target: 363 human kinases (including Aurora A/B/C) (Homo sapiens, UniProt Q9UPE1); details: MSSK1/STK23; for remaining activity at 0.1 µM: 100 nM; for remaining activity at 0.1 µM / remaining activity at 0.5 µM: read-out: % Enzyme Activity (relative to DMSO controls)
From the text: (§1) However, the Aurora A/B selectivity ratios derived from our in vitro and in vivo data can be compared to prioritize inhibitors.

[2] = target: 363 human kinases (including Aurora A/B/C) (Homo sapiens, UniProt O75582); details: MSK1/RPS6KA5; for remaining activity at 0.1 µM: 100 nM; for remaining activity at 0.1 µM / remaining activity at 0.5 µM: read-out: % Enzyme Activity (relative to DMSO controls)
363 human kinases (including Aurora A/B/C) (Homo sapiens, UniProt O75582), sequence (O75582 whole entry): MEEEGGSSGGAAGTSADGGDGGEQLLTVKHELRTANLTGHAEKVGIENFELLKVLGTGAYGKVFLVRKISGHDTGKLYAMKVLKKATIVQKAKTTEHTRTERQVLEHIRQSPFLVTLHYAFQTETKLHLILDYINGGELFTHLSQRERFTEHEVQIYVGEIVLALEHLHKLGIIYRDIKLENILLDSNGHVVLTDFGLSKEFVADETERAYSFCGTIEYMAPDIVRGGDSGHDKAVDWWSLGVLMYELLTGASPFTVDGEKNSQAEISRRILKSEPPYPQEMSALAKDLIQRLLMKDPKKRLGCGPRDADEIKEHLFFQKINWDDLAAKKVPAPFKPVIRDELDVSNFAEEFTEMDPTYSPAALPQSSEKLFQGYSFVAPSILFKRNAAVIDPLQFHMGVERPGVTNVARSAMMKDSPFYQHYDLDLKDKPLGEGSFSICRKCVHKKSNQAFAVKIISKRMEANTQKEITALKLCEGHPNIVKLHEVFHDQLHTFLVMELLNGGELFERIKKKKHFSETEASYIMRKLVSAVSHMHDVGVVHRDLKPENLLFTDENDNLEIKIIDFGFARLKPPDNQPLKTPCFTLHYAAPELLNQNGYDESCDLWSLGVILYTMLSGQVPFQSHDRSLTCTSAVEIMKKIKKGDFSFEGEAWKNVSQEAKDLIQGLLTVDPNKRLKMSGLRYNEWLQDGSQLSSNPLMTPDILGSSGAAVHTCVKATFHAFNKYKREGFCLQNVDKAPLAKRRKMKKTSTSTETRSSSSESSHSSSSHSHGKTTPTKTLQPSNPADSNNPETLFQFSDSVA
From the text: as §1

[3] = target: T1, 363 human kinases (including Aurora A/B/C) (Homo sapiens, UniProt Q56UN5); details: YSK4/MAP3K19; for remaining activity at 0.1 µM: 100 nM; for remaining activity at 0.1 µM / remaining activity at 0.5 µM: read-out: % Enzyme Activity (relative to DMSO controls)
T1 sequence (Q56UN5 1-1328): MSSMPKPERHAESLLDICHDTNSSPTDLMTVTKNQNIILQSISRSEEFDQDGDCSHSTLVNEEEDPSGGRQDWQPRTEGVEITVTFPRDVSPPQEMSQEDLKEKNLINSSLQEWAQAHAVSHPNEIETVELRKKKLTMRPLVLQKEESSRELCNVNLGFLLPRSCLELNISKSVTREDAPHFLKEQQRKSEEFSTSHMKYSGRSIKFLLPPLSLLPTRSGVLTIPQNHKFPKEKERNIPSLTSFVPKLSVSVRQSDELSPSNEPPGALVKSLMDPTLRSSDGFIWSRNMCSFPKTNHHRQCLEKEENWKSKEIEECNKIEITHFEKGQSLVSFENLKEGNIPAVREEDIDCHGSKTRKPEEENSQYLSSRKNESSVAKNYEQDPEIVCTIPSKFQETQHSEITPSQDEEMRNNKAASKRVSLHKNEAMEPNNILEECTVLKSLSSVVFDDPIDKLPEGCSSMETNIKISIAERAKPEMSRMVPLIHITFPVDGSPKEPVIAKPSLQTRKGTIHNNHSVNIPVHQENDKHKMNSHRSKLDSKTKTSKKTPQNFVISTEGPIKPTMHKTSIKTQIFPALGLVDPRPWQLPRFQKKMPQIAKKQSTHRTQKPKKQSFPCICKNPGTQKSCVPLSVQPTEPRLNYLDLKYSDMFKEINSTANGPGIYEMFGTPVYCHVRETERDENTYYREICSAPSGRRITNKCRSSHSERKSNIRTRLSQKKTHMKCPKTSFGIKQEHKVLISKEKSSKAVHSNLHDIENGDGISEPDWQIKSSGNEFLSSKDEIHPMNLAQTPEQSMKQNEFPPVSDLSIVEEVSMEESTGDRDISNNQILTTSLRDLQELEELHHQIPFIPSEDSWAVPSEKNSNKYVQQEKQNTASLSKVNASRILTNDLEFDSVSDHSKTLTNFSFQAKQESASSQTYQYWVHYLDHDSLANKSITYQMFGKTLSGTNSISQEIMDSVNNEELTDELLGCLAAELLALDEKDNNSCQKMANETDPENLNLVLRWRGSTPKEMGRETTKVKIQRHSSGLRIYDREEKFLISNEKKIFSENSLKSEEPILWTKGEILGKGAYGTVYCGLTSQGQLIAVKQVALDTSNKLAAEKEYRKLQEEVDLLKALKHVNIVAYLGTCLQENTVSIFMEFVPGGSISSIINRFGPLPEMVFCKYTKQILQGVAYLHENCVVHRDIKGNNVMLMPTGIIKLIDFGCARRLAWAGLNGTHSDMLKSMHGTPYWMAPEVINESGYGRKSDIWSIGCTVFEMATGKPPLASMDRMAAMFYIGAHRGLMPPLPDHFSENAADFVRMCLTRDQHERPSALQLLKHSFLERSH
From the text: as §1

[4] = target: 363 human kinases (including Aurora A/B/C) (Homo sapiens, UniProt Q16816); details: PHKg1; for remaining activity at 0.1 µM: 100 nM; for remaining activity at 0.1 µM / remaining activity at 0.5 µM: read-out: % Enzyme Activity (relative to DMSO controls)
363 human kinases (including Aurora A/B/C) (Homo sapiens, UniProt Q16816), sequence (Q16816 whole entry): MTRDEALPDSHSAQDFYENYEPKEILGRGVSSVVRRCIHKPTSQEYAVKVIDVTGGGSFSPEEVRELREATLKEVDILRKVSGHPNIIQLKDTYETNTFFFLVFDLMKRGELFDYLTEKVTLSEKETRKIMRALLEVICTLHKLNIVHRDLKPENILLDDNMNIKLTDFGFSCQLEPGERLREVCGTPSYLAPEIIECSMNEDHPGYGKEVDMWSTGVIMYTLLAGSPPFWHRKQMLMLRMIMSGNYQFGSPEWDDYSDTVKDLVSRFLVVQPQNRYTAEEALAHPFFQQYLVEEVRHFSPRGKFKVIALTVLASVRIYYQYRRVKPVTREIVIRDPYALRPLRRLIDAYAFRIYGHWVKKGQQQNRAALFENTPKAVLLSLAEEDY
From the text: as §1

[5] = target: 363 human kinases (including Aurora A/B/C) (Homo sapiens, UniProt P42685); details: FRK/PTK5; for remaining activity at 0.1 µM: 100 nM; for remaining activity at 0.1 µM / remaining activity at 0.5 µM: read-out: % Enzyme Activity (relative to DMSO controls)
363 human kinases (including Aurora A/B/C) (Homo sapiens, UniProt P42685), sequence (P42685 whole entry): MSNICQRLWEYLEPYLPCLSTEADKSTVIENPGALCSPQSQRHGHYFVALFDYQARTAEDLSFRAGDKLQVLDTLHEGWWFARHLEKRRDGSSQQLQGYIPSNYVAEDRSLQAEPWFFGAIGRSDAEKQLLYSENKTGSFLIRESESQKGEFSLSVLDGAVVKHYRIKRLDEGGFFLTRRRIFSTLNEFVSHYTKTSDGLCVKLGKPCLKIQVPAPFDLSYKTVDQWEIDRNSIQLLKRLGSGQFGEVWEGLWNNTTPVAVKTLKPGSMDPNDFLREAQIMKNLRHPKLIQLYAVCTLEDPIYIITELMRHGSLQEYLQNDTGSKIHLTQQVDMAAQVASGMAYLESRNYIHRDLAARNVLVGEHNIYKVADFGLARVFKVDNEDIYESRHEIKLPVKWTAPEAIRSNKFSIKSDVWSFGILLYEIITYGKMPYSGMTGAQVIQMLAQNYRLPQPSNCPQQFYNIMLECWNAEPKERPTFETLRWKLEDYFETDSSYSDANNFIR
From the text: as §1

[6] = target: T2, 363 human kinases (including Aurora A/B/C) (Homo sapiens, UniProt P43403); details: ZAP70; for remaining activity at 0.1 µM: 100 nM; for remaining activity at 0.1 µM / remaining activity at 0.5 µM: read-out: % Enzyme Activity (relative to DMSO controls)
T2 sequence (P43403 1-619): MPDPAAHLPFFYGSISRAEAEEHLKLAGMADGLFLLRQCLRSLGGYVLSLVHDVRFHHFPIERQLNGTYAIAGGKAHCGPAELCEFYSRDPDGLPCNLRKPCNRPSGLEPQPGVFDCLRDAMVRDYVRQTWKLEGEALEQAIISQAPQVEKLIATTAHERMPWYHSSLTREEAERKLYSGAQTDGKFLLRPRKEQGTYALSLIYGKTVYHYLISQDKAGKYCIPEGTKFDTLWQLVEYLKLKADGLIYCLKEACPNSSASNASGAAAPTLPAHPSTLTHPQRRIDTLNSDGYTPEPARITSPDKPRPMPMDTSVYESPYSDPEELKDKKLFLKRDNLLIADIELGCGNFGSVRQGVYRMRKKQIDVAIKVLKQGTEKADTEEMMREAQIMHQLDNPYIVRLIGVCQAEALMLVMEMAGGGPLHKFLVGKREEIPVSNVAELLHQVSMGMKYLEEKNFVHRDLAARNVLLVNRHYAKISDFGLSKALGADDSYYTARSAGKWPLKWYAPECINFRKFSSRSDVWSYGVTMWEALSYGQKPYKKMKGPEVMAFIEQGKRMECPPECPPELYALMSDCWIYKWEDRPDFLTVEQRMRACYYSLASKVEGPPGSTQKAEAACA
From the text: as §1

[7] = target: T3, 363 human kinases (including Aurora A/B/C) (Homo sapiens, UniProt Q9HBY8); details: SGK2; for remaining activity at 0.1 µM: 100 nM; for remaining activity at 0.1 µM / remaining activity at 0.5 µM: read-out: % Enzyme Activity (relative to DMSO controls)
T3 sequence (Q9HBY8 1-367): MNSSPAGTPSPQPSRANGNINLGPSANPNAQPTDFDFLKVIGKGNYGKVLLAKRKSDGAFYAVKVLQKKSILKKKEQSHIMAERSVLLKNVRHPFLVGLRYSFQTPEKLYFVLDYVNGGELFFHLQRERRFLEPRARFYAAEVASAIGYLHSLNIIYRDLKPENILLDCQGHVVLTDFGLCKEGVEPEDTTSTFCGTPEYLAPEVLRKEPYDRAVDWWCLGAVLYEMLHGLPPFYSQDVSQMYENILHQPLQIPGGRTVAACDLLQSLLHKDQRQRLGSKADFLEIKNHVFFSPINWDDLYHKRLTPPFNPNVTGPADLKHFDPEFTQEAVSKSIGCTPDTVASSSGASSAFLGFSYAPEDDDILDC
From the text: as §1

[8] = target: 363 human kinases (including Aurora A/B/C) (Homo sapiens, UniProt Q14289); details: PYK2; for remaining activity at 0.1 µM: 100 nM; for remaining activity at 0.1 µM / remaining activity at 0.5 µM: read-out: % Enzyme Activity (relative to DMSO controls)
363 human kinases (including Aurora A/B/C) (Homo sapiens, UniProt Q14289), sequence (Q14289 whole entry): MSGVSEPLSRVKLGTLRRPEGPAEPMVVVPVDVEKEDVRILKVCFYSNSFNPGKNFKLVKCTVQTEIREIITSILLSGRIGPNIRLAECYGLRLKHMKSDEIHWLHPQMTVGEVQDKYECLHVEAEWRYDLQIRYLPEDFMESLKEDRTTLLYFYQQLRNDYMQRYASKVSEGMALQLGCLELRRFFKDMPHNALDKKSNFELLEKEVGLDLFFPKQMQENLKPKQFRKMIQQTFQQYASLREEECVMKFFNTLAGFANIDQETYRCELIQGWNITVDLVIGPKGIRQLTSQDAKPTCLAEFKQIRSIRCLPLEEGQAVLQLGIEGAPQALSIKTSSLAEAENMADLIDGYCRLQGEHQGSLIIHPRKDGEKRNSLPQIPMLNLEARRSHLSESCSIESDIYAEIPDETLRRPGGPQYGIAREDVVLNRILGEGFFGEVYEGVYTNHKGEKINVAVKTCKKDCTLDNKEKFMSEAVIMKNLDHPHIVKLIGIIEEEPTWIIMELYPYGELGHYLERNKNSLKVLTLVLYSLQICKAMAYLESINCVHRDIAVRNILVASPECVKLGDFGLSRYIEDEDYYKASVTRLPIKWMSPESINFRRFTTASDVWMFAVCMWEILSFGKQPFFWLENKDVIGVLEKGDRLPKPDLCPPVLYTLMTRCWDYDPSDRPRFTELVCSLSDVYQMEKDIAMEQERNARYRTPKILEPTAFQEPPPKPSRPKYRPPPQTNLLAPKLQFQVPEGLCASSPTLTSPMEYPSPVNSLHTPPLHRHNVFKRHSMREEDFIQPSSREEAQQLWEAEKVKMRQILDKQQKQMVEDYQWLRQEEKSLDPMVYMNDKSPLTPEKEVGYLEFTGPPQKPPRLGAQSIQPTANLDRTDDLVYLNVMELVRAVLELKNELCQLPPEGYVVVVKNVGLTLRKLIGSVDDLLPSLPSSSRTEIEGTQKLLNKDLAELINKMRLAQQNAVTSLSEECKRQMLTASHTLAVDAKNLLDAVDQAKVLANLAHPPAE
From the text: as §1

[9] = target: 363 human kinases (including Aurora A/B/C) (Homo sapiens, UniProt Q8NEV4); details: MYO3A; for remaining activity at 0.1 µM: 100 nM; for remaining activity at 0.1 µM / remaining activity at 0.5 µM: read-out: % Enzyme Activity (relative to DMSO controls)
363 human kinases (including Aurora A/B/C) (Homo sapiens, UniProt Q8NEV4), sequence (Q8NEV4 whole entry): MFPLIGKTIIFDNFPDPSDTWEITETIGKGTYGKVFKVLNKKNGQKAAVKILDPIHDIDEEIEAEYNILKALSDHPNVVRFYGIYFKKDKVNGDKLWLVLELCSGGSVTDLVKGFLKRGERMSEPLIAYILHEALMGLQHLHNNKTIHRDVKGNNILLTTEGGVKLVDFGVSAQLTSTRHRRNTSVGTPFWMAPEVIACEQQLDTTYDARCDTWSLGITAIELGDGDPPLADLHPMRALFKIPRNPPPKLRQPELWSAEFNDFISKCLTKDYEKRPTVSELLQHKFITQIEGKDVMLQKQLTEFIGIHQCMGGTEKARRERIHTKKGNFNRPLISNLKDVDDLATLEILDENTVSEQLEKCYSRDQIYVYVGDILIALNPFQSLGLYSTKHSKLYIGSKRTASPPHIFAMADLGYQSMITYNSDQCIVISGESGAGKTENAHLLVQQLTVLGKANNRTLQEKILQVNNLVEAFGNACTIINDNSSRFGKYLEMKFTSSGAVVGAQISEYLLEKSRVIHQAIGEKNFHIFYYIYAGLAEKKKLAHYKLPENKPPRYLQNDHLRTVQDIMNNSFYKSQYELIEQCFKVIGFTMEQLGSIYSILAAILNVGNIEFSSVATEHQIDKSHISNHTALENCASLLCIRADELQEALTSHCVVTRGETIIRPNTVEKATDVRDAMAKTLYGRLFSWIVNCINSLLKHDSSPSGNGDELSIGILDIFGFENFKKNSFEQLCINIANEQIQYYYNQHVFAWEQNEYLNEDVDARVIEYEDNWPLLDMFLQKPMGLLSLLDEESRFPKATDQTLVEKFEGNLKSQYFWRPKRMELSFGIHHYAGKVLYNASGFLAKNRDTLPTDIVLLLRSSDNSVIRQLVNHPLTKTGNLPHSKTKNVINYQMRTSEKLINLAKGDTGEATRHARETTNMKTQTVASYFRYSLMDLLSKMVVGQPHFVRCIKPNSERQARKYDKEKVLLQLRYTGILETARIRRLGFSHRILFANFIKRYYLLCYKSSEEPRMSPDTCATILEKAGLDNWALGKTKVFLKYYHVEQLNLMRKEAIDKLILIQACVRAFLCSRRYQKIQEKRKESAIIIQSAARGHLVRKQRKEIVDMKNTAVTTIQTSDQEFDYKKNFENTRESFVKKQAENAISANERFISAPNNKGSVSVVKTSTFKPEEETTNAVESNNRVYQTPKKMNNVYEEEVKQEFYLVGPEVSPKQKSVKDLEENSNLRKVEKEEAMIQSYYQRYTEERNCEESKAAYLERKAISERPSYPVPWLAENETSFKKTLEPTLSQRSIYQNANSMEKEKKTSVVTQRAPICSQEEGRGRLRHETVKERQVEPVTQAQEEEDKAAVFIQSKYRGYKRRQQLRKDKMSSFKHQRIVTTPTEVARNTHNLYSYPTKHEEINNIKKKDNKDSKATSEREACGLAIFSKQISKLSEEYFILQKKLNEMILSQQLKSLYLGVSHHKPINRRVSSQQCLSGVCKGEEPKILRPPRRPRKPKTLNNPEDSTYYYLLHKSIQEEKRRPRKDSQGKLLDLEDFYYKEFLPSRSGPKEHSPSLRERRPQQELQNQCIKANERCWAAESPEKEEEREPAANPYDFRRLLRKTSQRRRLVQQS
From the text: as §1

363 human kinases (including Aurora A/B/C) (Homo sapiens, UniProt Q9UPE1), sequence (Q9UPE1 whole entry): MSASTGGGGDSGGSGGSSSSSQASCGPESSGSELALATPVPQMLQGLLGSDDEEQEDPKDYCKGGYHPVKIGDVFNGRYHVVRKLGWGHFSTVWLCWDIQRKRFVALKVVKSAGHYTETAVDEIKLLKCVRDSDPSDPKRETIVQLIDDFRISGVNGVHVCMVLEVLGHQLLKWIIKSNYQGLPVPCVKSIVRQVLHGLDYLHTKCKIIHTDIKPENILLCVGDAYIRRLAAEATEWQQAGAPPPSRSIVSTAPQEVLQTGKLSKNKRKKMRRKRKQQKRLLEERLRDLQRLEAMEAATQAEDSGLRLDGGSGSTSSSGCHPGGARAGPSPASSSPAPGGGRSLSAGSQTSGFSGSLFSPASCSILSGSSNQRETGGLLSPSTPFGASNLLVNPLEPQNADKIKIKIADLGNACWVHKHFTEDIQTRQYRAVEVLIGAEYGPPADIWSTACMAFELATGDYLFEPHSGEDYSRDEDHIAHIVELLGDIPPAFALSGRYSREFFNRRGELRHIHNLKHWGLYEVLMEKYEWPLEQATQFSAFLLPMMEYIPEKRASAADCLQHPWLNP

SMILES | remaining activity at 0.1 µM [1] [%] | remaining activity at 0.1 µM [2] [%] | remaining activity at 0.1 µM [3] [%] | remaining activity at 0.1 µM [4] [%] | remaining activity at 0.1 µM [5] [%] | remaining activity at 0.1 µM [6] [%] | remaining activity at 0.1 µM [7] [%] | remaining activity at 0.1 µM [8] [%] | remaining activity at 0.1 µM [9] [%] | remaining activity at 0.5 µM ([1]; 500 nM) [%] | remaining activity at 0.5 µM ([2]; 500 nM) [%] | remaining activity at 0.5 µM ([3]; 500 nM) [%] | remaining activity at 0.5 µM ([4]; 500 nM) [%] | remaining activity at 0.5 µM ([5]; 500 nM) [%] | remaining activity at 0.5 µM ([6]; 500 nM) [%] | remaining activity at 0.5 µM ([7]; 500 nM) [%] | remaining activity at 0.5 µM ([8]; 500 nM) [%] | remaining activity at 0.5 µM ([9]; 500 nM) [%] | also measured
CCn1cc(-c2ccnc3[nH]c(-c4cccc(CN(C)C)c4)cc23)c(-c2ccc(NC(=O)N(C)C)cc2)n1 [GSK1070916] | 95.5 | 101 | 99.2 | 95.6 | 99.9 | 105 | 102 | 95.3 | 92.9 |  |  |  |  |  |  |  |  |  | 
O=C(O)[C@]1(Cc2cccc(Nc3nccs3)n2)CC[C@@H](Oc2cccc(Cl)c2F)CC1 [MK-5108] | 99 | 99.7 | 16.1 | 99.1 | 41 | 103 | 105 | 41.2 | 90.8 | 85 | 86.8 | 8.95 | 82 | 19.8 | 113 | 105 | 16.4 | 131 | 
O=C(c1cccc(Cl)c1F)N1CCN(Cc2cccc(Nc3nccs3)n2)CC1 [MK-8745] |  |  |  |  |  |  |  |  |  | 93.6 | 96.3 | 91.4 | 93.3 | 98.1 | 109 | 100 | 83.5 | 71.2 | % Enzyme Activity (relative to DMSO controls) ([1]; 500 nM): 93.46%; % Enzyme Activity (relative to DMSO controls) ([2]; 500 nM): 93.34%; % Enzyme Activity (relative to DMSO controls) ([3]; 500 nM): 88.95%; % Enzyme Activity (relative to DMSO controls) ([4]; 500 nM): 90.90%; % Enzyme Activity (relative to DMSO controls) ([5]; 500 nM): 94.09%; % Enzyme Activity (relative to DMSO controls) ([6]; 500 nM): 97.69%; % Enzyme Activity (relative to DMSO controls) ([7]; 500 nM): 98.06%; % Enzyme Activity (relative to DMSO controls) ([8]; 500 nM): 80.17%; % Enzyme Activity (relative to DMSO controls) ([9]; 500 nM): 66.28%
